The record followed here is ChEMBL document CHEMBL1201862, “PubChem BioAssay data set” (2004).

A short description of test [1]: viability of uninfected HEp-2 cells – cell-based, HTS, cytotoxicity control for RSV inhibitor project, dose response (AID 2410). The class given is functional. As to conditions: human respiratory syncytial virus.
For test [2], the system named is INS1. The test can be described thus: INS-1E survival protection against cytokine death – cell-based, luminescence, retest, dose response (AID 449756).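 Further: cell death triggered by IL-1 beta plus TNF-alpha plus IFN-gamma mixture; protective hits raise ATP signal compared with cytokine alone wells.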 The class given is functional. As to conditions: Rattus norvegicus.
Test [3] has as its target Protein Wnt-3a (Mus musculus, UniProt P27467). The test can be described thus: antagonism of Wnt3a pathway luciferase reporter – Wnt-LIGHT cells, luminescence, selectivity assay for Gli-SUFU antagonist project, dose response (AID 651570).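 Further: Wnt-LIGHT reporter cells stimulated with conditioned medium from Wnt3a-producing cells.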 The class given is functional. As to conditions: read-out: IC50_Mean. A general note: A reporter such as luciferase makes a cellular process visible.

The subject of test [4] is Vero. Put plainly: mammalian cell viability reduction – secondary assay, cytotoxicity control for West Nile virus antiviral project, dose response (AID 1650). To be noted: Chlorocebus sabaeus. The class given is functional.
Test [5] addresses Interleukin-8 (Homo sapiens, UniProt P10145). Put plainly: Dose Response confirmation of uHTS small molecule hits for cystic fibrosis induced NFkb Inhibitors in a PAF-induced IL8 counterscreen. It counts as functional. As to conditions: read-out: IC50_Mean. Background: Counterscreens check selectivity or assay interference.
Test [6] in a line: OVCAR4 cell viability loss – plate reader, dry powder, SA11, cytotoxicity control for PAX8 inhibitor project, dose response (AID 743150). It counts as functional, cell-based. As to conditions: OVCAR-4.
Test [7] is described as follows: OV-90 cell viability loss – plate reader, dry powder, SA8, PAX8 inhibitor project, dose response (AID 743149). The class given is functional, cell-based.
Test [8] is described as follows: PAX8-dependent cell viability loss – plate reader, dry powder, dose response (AID 743049). It counts as functional, cell-based.
The target of test [9] is Paired box protein Pax-8 (Homo sapiens, UniProt Q06710). Put plainly: PAX8 transcriptional activity inhibition in RMG-I – RMG-I cells, luciferase, cherry-pick, dose response (AID 687027).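 Further: luciferase reporter driven by Pax8 target thyroperoxidase promoter measured by SteadyGlo luminescence.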 The class given is functional, cell-based.
The nature of test [10]: COV434 cell viability loss – plate reader, dry powder, SA7, cytotoxicity control for PAX8 inhibitor project, dose response (AID 743145). The class given is functional, cell-based.
A short description of test [11]: PAX5 cellular inhibition readout – cell-based, plate reader, dry powder samples, selectivity assay for PAX8 inhibitor project, dose response (AID 743047).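 Further: HEK293 cells carrying a Pax5 driven CD19 promoter luciferase reporter; potency of inhibitors that lower reporter luminescence.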 It counts as functional.
The nature of test [12]: inhibitors acting on PAX2 in cells – cell-based, plate reader, dry powder samples, selectivity assay for PAX8 inhibitor project, dose response (AID 743048).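 Further: HEK293 cells carrying a WT1 promoter luciferase reporter driven by expressed Pax2; potency is for inhibition of Pax2 driven reporter signal.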 It counts as functional.
Test [13] concerns the target T1, Microphthalmia-associated transcription factor (Homo sapiens, UniProt O75030).
T1 sequence (O75030 whole entry): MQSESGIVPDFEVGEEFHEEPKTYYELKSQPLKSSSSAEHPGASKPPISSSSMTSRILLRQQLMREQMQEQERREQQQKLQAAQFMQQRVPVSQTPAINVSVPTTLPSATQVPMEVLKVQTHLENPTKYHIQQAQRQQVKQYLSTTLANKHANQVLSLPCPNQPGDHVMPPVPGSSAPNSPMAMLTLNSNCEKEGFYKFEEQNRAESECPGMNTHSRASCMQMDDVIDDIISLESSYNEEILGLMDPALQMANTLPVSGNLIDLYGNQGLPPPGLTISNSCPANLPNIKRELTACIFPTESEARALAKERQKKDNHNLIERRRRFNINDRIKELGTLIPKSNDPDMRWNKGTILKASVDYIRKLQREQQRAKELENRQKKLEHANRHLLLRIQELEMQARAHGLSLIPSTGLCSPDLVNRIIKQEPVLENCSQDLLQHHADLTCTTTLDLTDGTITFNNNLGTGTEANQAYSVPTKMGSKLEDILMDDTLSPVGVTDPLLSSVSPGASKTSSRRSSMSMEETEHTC
The test can be described thus: reducers of TRPM1 reporter luminescence, concentration series – cell-based, SK-MEL-5, cherry-picked, set 3, MITF inhibitor project, dose response (AID 493073).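 Further: SK-MEL-5 melanoma cells with luciferase driven by the MITF target TRPM1 promoter.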 It counts as functional.

Test [14] in a line: IGROV1 cell killing – plate reader, dry powder samples, PAX8 inhibitor project, dose response (AID 743043). The class given is functional, cell-based. To be noted: IGROV-1.
Test [15] can be described thus: inhibition of ARNT PAS-B/TACC3 complex formation – biochemical, AlphaScreen, cherry-picked samples, confirmation (AID 651703).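 Further: His-tagged ARNT PAS-B domain paired with GST-TACC3 E629A dimer coactivator fragment; potency of inhibitors that break up the complex and lower AlphaScreen signal.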 It counts as functional, Homo sapiens. For orientation: Bead proximity is the source of the signal in Alpha formats.
Test [16] has as its target Melanocortin receptor 4 (Homo sapiens, UniProt P32245). The class given is functional, cell-based.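 Further: Cell-based assay with luminescence read-out, confirmatory dose-response testing for agonist activity of biased ligands at MC4R; human U2OS cells with tagged receptor and beta-arrestin; potency of agonists that increase receptor coupling to beta-arrestin.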
The target in test [17] is T2, Aryl hydrocarbon receptor (Homo sapiens, UniProt P35869).
T2 sequence (P35869 whole entry): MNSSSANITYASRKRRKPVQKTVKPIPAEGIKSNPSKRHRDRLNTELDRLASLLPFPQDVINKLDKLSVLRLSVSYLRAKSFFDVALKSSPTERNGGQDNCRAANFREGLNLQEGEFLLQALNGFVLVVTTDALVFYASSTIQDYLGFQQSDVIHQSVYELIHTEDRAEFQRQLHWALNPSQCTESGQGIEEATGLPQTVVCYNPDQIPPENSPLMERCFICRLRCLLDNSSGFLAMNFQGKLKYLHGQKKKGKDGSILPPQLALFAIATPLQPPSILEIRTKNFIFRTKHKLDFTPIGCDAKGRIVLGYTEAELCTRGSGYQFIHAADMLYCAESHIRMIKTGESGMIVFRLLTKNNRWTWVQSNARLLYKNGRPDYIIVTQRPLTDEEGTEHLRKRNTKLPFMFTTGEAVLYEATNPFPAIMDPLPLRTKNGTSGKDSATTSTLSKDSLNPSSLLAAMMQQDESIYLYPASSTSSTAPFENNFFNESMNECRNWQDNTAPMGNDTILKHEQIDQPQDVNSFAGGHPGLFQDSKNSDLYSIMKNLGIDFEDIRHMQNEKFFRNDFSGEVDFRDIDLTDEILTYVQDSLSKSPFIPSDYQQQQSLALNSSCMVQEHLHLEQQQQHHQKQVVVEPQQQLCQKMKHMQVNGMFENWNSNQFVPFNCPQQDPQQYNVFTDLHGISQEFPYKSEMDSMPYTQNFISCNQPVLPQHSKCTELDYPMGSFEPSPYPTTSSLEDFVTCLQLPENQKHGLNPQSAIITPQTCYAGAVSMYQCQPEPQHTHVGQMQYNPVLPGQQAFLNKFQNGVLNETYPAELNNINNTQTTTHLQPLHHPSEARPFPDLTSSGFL
Put plainly: Luminescence-based cell-based high throughput dose response assay for activators of the Aryl Hydrocarbon Receptor (AHR). [Related pubchem assays: 2796 (Primary screen (AHR activators in singlicate)), 2845 (Confirmation screen (AHR activators in triplicate)), 434939 (Counterscreen (PXR activators in triplicate)), 2804 (Summary (AHR activators))]. The class given is ADME.

For test [18], the target named is T3, Mitochondrial peptide methionine sulfoxide reductase (Bos taurus, UniProt P54149).
T3 sequence (P54149 whole entry): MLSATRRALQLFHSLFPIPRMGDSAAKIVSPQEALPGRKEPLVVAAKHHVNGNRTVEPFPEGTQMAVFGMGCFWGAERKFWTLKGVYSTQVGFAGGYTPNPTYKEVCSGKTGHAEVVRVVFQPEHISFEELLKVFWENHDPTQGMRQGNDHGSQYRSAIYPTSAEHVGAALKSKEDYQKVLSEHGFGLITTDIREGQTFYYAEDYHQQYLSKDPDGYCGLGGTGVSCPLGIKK
The test can be described thus: Absorbance-based biochemical high throughput dose response assay for activators of Methionine sulfoxide reductase A (MsrA). The class given is functional.

Test [19] deals with T4, Replicative DNA helicase DnaB (Mycobacterium tuberculosis, UniProt P9WMR3).
T4 sequence (P9WMR3 whole entry): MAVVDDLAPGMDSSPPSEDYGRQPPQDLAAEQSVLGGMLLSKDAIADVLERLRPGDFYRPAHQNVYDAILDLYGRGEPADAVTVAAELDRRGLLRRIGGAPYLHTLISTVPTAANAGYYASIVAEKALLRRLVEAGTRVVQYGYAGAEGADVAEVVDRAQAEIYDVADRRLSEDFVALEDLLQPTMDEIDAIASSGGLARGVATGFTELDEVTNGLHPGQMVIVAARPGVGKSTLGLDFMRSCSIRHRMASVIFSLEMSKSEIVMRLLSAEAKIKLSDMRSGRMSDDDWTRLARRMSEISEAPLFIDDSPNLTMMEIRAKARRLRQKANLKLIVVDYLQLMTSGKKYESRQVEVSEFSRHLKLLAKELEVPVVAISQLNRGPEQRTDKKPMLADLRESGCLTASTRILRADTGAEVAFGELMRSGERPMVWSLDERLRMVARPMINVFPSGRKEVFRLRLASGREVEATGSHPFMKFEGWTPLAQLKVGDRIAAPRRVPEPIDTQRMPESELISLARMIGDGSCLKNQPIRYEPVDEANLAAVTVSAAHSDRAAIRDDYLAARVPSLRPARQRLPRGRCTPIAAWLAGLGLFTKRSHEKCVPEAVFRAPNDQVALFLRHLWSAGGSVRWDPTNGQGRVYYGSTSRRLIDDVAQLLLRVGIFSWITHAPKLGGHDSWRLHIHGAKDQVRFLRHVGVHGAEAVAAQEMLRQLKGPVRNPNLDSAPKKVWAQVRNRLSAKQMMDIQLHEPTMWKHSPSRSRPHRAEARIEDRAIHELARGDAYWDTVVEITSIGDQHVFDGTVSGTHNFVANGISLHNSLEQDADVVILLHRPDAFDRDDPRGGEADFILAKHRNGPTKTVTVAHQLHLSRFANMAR
The test can be described thus: DnaB intein splicing inhibitors, dose response, biochemical, cell-free fluorescence (AID 449749). The class given is functional.

The target of test [20] is T5, Protein RecA (Mycobacterium tuberculosis, UniProt P9WHJ3).
T5 sequence (P9WHJ3 whole entry): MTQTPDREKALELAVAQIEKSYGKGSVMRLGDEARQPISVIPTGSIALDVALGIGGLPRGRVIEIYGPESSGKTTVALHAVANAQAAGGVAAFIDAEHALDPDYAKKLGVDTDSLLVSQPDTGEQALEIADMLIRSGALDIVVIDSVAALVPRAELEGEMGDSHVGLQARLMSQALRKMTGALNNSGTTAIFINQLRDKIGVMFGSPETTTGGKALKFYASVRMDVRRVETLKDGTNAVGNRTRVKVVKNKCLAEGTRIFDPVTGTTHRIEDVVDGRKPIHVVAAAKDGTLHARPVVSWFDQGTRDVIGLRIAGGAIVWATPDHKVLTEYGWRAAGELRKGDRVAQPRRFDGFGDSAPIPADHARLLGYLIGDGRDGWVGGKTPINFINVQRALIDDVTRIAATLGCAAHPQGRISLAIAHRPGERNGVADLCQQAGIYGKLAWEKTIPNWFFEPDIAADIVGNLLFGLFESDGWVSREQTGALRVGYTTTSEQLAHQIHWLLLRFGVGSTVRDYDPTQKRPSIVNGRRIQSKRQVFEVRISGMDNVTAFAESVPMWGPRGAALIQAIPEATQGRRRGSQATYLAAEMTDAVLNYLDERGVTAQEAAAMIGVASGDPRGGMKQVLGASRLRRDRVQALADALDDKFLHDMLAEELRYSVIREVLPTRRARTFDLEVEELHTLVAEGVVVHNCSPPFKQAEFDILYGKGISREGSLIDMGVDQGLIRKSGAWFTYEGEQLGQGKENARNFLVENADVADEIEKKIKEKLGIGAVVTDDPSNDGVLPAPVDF
The test can be described thus: Fluorescence Cell-Free Homogeneous Dose Retest to Identify Inhibitors of RecA-Intein Splicing Activity. [Related pubchem assays (depositor defined):AID2097, AID2223, AID489010, AID492950]. The class given is functional.

Test [21] addresses T3, Mitochondrial peptide methionine sulfoxide reductase. It counts as functional.

Calls of active or inactive are those of the source.

Chain of Paired box protein Pax-8 (Q06710 whole entry): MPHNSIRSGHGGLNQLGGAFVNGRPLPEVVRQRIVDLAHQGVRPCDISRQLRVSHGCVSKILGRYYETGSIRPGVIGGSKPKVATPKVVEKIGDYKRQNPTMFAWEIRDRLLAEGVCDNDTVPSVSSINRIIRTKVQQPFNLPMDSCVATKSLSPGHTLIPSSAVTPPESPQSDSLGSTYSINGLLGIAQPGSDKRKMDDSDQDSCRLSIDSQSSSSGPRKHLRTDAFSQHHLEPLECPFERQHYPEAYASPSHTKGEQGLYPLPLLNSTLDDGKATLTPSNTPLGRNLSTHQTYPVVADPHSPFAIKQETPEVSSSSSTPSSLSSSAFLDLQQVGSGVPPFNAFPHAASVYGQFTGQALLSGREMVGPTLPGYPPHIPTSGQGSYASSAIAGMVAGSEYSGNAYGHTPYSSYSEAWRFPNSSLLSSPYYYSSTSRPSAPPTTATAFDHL
Chain of Interleukin-8 (P10145 whole entry): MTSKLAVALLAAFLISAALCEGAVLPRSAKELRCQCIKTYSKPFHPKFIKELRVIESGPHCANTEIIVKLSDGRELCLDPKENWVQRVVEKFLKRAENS
Chain of Protein Wnt-3a (P27467 whole entry): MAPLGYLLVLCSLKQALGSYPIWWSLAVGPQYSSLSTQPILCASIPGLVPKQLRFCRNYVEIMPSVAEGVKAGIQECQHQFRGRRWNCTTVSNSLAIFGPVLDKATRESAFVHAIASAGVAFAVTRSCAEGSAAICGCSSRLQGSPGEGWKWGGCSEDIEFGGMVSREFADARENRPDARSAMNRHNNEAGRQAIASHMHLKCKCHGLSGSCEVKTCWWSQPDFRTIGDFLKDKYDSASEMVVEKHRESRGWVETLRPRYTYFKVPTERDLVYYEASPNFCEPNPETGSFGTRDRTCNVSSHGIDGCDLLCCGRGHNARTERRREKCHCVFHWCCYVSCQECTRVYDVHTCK
Chain of Melanocortin receptor 4 (P32245 whole entry): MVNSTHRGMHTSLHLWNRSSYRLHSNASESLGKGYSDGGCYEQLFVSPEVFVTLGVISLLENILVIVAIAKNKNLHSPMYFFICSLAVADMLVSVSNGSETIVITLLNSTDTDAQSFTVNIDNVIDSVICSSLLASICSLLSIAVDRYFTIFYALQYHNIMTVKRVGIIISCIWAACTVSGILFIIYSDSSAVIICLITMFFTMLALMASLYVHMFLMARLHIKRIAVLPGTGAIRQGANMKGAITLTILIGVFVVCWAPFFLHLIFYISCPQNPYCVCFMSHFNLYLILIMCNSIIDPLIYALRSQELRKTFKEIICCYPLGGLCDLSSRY

The CC50 is the concentration giving 50% cytotoxicity. What is called AC50 is the concentration at which the activity in the assay is half-maximal. Turning to `Cc1ccc(Cl)cc1N1CCN(C(=O)CSc2nnc3n2C(C)(C)Cc2ccccc2-3)CC1`, the CC50 in test [1] is < 0.1 µM (active). In addition, in test [2], the AC50 was 5.01 µM (active). Moreover, in test [3], the IC50 is 4.43 µM (active).
Regarding `Cc1ccc(S(=O)(=O)CC(CN2CCCCC2)N2CCCCC2)cc1` (stereo unspecified), the 50% cytotoxic concentration (CC50) in test [4] is 8.81 µM (active). In addition, the IC50 in [5] was 4.55 µM (active). The AC50 in [6] is 80.7 µM (active); in test [7], 15.7 µM (active); in test [8] it was 17.1 µM (active); in test [9], 4.72 µM (active); in test [10], 9.72 µM (active); in test [11], 22.9 µM (active). Moreover, the AC50 is > 100 µM (inactive) in test [12], 8.1 µM (active) in test [13] and 46.5 µM (active) in test [14].
Regarding `Cn1ccnc1-c1nc2ccccc2nc1O`, in [15], the concentration at half-maximal activity (AC50) is 71.9 µM (active).
One may read the EC50 as the midpoint of the concentration-response curve. In the case of `COc1ccc(NC(=O)Nc2nc(C(N)Cc3ccc(C(F)(F)F)cc3)cs2)cc1` (stereo unspecified), the EC50 in test [16] is > 89.2 µM (inactive).
Turning to `O=C1/C(=N/c2ccc(O)cc2)C(Cl)=C(O)c2ccccc21`, the half-maximal effective concentration (EC50) in [17] is > 1.13 µM (active); in [18] it was > 104 µM (inactive); in test [20] it was 3.48 µM (active). In addition, in test [19], the half-maximal activity concentration (AC50) is 3.36 µM (active). For the same compound, the IC50 in test [21] was 155 µM (inactive).
